Test results taken from patent US11261201B2 (priority 2018, dated 2022).
In brackets after ≈: the same amount, converted by molar mass. Structures can show the parent of a compound that is named as a salt. Where two headings read alike, the source gives them in different places.

Tests used:
A. baumannii = assay: Gram negative MIC protocol (OD600, LB, 24 h); settings: for MIC: Acinetobacter baumannii
Procedure: (§1) Overnight bacterial cultures were grown in LB with no added antibiotics at 37° C. with shaking. A 1:1000 dilution of these cultures into LB was exposed to concentration gradients of compounds in 96-well plates (100 μL per well assay volume). Resulting plates were incubated at 37° C. for 24 h without shaking, and OD600 was measured at the end of the incubation. MICs were determined as the lowest concentrations at which OD600 remained at baseline.

H37RvMA = assay: Tuberculosis Alamar Blue/Resazurin assay (MIC); assay type: cell-based; settings: read-out: WT H37Rv MTB Activity
E. coli = assay: Gram negative MIC protocol (OD600, LB, 24 h); settings: for MIC: Escherichia coli
Procedure: as §1

[1] = read-out: MIC A. baumannii LB Media, A. baumannii, LB media, 24 h, OD600
[2] = Mycobacterium tuberculosis, H37RV, WT H37Rv MTB
[3] = read-out: MIC E. coli delta-TolC LB Media, E. coli delta-TolC, LB media, OD600
[4] = read-out: MIC WT E. coli LB Media, WT E. coli, LB media, OD600
[5] = Mycobacterium tuberculosis, H37RV
[6] = read-out: MIC E. coli delta-TolC LB Media, E. coli delta-TolC strain, LB media, 24 h, OD600
[7] = read-out: MIC WT E. coli LB Media, wild-type E. coli, LB media, 24 h, OD600
[8] = read-out: MIC A. baumannii LB Media

SMILES	MIC (A. baumannii; [1])	MIC (H37RvMA; [2])	MIC (E. coli; [3])	MIC (E. coli; [4])	MIC (E. coli; [6])	MIC (E. coli; [7])	other results
O=C1NCC(COc2ccccc2CNCCC2=CCCCC2)O1 (centres unmarked) [B402]	> 150 µM	> 150 µM	33 µM (≈ 10.9 µg/mL)	150 µM (≈ 49.6 µg/mL)			
COc1ccc(C(C)CNCc2ccccc2)cc1OC (centres unmarked) [B44]	> 150 µM		> 150 µM	> 150 µM			MIC (H37RvMA; [5]): > 150 µM
C1=CC2CCC1CC2CNCc1ccccc1 (centres unmarked) [B122]	> 150 µM	150 µM (≈ 34.1 µg/mL)	> 150 µM	> 150 µM			
c1ccc(CNCCC2CSc3ccccc3O2)cc1 (centres unmarked) [B118]	> 150 µM	> 150 µM	> 150 µM	> 150 µM			
c1ccc(CNCCc2ccnc3ccccc23)cc1 [B119]	> 150 µM	> 150 µM	> 150 µM	> 150 µM			
C1=C(CCNCc2ccncc2)CCCC1 [B15]							MIC A. baumannii LB Media (A. baumannii; A. baumannii, LB media, OD600): >150 µM; MIC (H37RvMA; WT H37Rv MTB): >150 µM; MIC E. coli delta-TolC LB Media (E. coli; E. coli delta-TolC, LB media, OD600): >150 µM; MIC WT E. coli LB Media (E. coli; WT E. coli, LB media, OD600): >150 µM
c1ccc(CNCCC2CCCCO2)cc1 (centres unmarked) [B222]	> 300 µM	> 150 µM			> 150 µM	> 300 µM	
NCc1cccc(CNCCC2CCCCC2)c1 [B355]	> 150 µM	> 150 µM			> 150 µM	> 150 µM	
Cl.c1ccc(CNCC2CCCc3ccccc32)cc1 (centres unmarked) [B214, N-benzyl-1-(1,2,3,4-tetrahydronaphthalen-1-yl)methanamine hydrochloride]	> 300 µM				> 300 µM	> 300 µM	MIC (H37RvMA; WT H37Rv MTB): >150 µM
O=C1Cc2ccccc2CN1CCC1=CCCCC1 [B411, 2-(2-(cyclohex-1-en-1-yl)ethyl)-1,4-dihydroisoquinolin-3(2H)-one]	> 150 µM	7.4 µM (≈ 1.89 µg/mL)	150 µM (≈ 38.3 µg/mL)	> 150 µM			
C1=C(CCNCc2ccccc2)c2ccccc2C1 [B27]	> 150 µM	91 µM (≈ 22.7 µg/mL)	> 150 µM	> 150 µM			
CC(NCc1ccccc1)C1CCCCC1 (centres unmarked) [B134]	> 150 µM	> 150 µM	> 150 µM	120 µM (≈ 26.1 µg/mL)			
CC(CC1CCCCC1)NCc1ccccc1OCC1CN(C)C(=O)O1 (centres unmarked) [B372]	> 150 µM	> 150 µM			5 µM (≈ 1.8 µg/mL)	150 µM (≈ 54.1 µg/mL)	
c1cc(CNCCC2CCCCC2)c2cc[nH]c2c1 [B357]	91 µM (≈ 23.3 µg/mL)	91 µM (≈ 23.3 µg/mL)			20 µM (≈ 5.13 µg/mL)	150 µM (≈ 38.5 µg/mL)	
CC(CNCc1ccccc1)C1CCCCC1 (centres unmarked) [B103]	> 150 µM	> 150 µM	150 µM (≈ 34.7 µg/mL)	150 µM (≈ 34.7 µg/mL)			
CC1CCC(CCNCc2ccccc2)CC1 (centres unmarked) [B221]	220 µM (≈ 50.9 µg/mL)	150 µM (≈ 34.7 µg/mL)			150 µM (≈ 34.7 µg/mL)	300 µM (≈ 69.4 µg/mL)	
CC(CC1CCCCC1)NCc1ccccc1OCC(=O)NC1CC1 (centres unmarked) [B280]	150 µM (≈ 51.7 µg/mL)	> 150 µM			12 µM (≈ 4.13 µg/mL)	150 µM (≈ 51.7 µg/mL)	
C#CCNC(=O)COc1ccccc1CNC(C)CC1CCCCC1 (centres unmarked) [B359]	150 µM (≈ 51.4 µg/mL)	> 150 µM			12 µM (≈ 4.11 µg/mL)	> 150 µM	
c1ccc(CNCCC23CC4CC(CC(C4)C2)C3)cc1 [B198]	170 µM (≈ 45.8 µg/mL)				170 µM (≈ 45.8 µg/mL)	> 300 µM	MIC (H37RvMA; WT H37Rv MTB): 91 µM (≈ 24.5 µg/mL)
CCC1CCCCC1Oc1ccccc1CNC(C)CC1CCCCC1 (centres unmarked) [B392, 1-cyclohexyl-N-(2-((2-ethylcyclohexyl)oxy)benzyl)propan-2-amine]	150 µM (≈ 53.6 µg/mL)	33.4 µM (≈ 11.9 µg/mL)			7 µM (≈ 2.5 µg/mL)	> 150 µM	
CC(CC1CCCC1)NCc1ccccc1 (centres unmarked) [B38]			90 µM (≈ 19.6 µg/mL)	91 µM (≈ 19.8 µg/mL)			MIC (A. baumannii; [8]): 150 µM (≈ 32.6 µg/mL); MIC (H37RvMA; [5]): > 150 µM
CC(CC1CCCCC1)NCc1ccccc1CCC(N)=O (centres unmarked) [B399, 3-(2-((1-cyclohexylpropan-2-ylamino)methyl)phenyl)propanamide trifluoroacetate]			20 µM	150 µM			MIC (A. baumannii; [8]): > 150 µM; MIC (H37RvMA; [5]): > 150 µM
COC(=O)C(CC1CCCCC1)NCc1ccccc1 (centres unmarked) [B203, methyl 2-(benzylamino)-3-cyclohexylpropanoate hydrochloride]	> 300 µM	> 150 µM			170 µM	> 300 µM	
